Results taken from US20250230193A1, “CYCLIC COMPOUND HAVING SELECTIVE KRAS INHIBITORY EFFECT ON HRAS AND NRAS” (CHUGAI SEIYAKU KABUSHIKI KAISHA, priority 2022, published 2025).

Legend:
[1] = target: GDP-bound HRAS wild-type protein (Homo sapiens, UniProt P01112); assay: Binding to HRAS by surface plasmon resonance (SPR), Single Cycle Kinetics; conditions: SPR; KD ratio class
[2] = system: human lung cancer strain NCI-H441; assay: cells; conditions: NCI-H441, 96 h, read-out: NCI-H441 IC50 (nM)
[3] = target: GDP-bound NRAS wild-type protein (Homo sapiens, UniProt P01111); assay: Binding to NRAS by surface plasmon resonance (SPR), Single Cycle Kinetics; conditions: SPR; KD ratio class
Chain of GDP-bound NRAS wild-type protein (P01111 whole entry): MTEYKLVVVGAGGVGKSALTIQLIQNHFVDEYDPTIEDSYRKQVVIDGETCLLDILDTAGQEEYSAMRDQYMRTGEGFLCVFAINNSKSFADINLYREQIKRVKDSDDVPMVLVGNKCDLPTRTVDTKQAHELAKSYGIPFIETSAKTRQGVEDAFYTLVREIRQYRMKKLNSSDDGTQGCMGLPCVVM

Chain of GDP-bound HRAS wild-type protein (P01112 whole entry): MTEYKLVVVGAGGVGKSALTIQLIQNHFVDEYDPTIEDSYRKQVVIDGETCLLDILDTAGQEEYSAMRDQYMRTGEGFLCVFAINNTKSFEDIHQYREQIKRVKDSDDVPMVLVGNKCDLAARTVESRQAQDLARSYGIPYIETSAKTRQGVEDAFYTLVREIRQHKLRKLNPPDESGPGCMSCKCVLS

CCO[C@@H]1C[C@H]2C(=O)NC3(CCC3)C(=O)N(C)[C@@H](C(CC)CC)C(=O)N(C)[C@H](C(=O)N(C)C)CC(=O)N(C)[C@@H](CC3CCCC3)C(=O)N[C@@H]([C@@H](C)CC)C(=O)N(C)CC(=O)N(C)[C@H]3C/C=C\CCN(C3=O)[C@@H](Cc3ccc(F)cc3C)C(=O)N(C)CC(=O)N[C@@H](CCc3cc(F)c(C(F)(F)F)c(F)c3)C(=O)N2C1 [PP1516]
HRAS/KRAS (ratio of KD value for GDP-bound HRAS wild-type protein to KD value for KRAS) [1]: B (a compound having 3 or more and less than 10 is denoted as B)
IC50 [2]: 45.7 nM
NRAS/KRAS (ratio of KD value for GDP-bound NRAS wild-type protein to KD value for KRAS) [3]: A (a compound having 10 or more and less than 20 is denoted as A)

CCO[C@@H]1C[C@H]2C(=O)NC3(CCC3)C(=O)N(C)[C@@H](C(CC)CC)C(=O)N(C)[C@H](C(=O)N(C)C)CC(=O)N(C)[C@@H](CC3CCCC3)C(=O)N[C@@H]([C@@H](C)CC)C(=O)N(C)CC(=O)N(C)[C@H]3C/C=C\CCN(C3=O)[C@@H](Cc3ccc(F)cc3)C(=O)N(C)CC(=O)N[C@@H](CCc3cc(F)c(C(F)(F)F)c(F)c3)C(=O)N2C1 [PP1517]
HRAS/KRAS (ratio of KD value for GDP-bound HRAS wild-type protein to KD value for KRAS) [1]: A (a compound having 10 or more and less than 20 is denoted as A)
IC50 [2]: 33.6 nM
NRAS/KRAS (ratio of KD value for GDP-bound NRAS wild-type protein to KD value for KRAS) [3]: A (a compound having 10 or more and less than 20 is denoted as A)

CCO[C@@H]1C[C@H]2C(=O)NC3(CCC3)C(=O)N(C)[C@@H](C(CC)CC)C(=O)N(C)[C@H](C(=O)N(C)C)CC(=O)N(C)[C@@H](CC(C)C)C(=O)N[C@@H]([C@@H](C)CC)C(=O)N(C)CC(=O)N(C)[C@H]3C/C=C\CCN(C3=O)[C@@H](Cc3ccc(F)cc3C)C(=O)N(C)CC(=O)N[C@@H](CCc3cc(F)c(C(F)(F)F)c(F)c3)C(=O)N2C1 [PP1518]
HRAS/KRAS (ratio of KD value for GDP-bound HRAS wild-type protein to KD value for KRAS) [1]: B (a compound having 3 or more and less than 10 is denoted as B)
IC50 [2]: 49.4 nM
NRAS/KRAS (ratio of KD value for GDP-bound NRAS wild-type protein to KD value for KRAS) [3]: A (a compound having 10 or more and less than 20 is denoted as A)

CCO[C@@H]1C[C@H]2C(=O)NC3(CCC3)C(=O)N(C)[C@@H](C(CC)CC)C(=O)N(C)[C@H](C(=O)N(C)C)CC(=O)N(C)[C@@H](CC(C)C)C(=O)N[C@@H]([C@@H](C)CC)C(=O)N(C)CC(=O)N(C)[C@H]3C/C=C\CCN(C3=O)[C@@H](Cc3ccc(F)cc3)C(=O)N(C)CC(=O)N[C@@H](CCc3cc(F)c(C(F)(F)F)c(F)c3)C(=O)N2C1 [PP1519]
HRAS/KRAS (ratio of KD value for GDP-bound HRAS wild-type protein to KD value for KRAS) [1]: A (a compound having 10 or more and less than 20 is denoted as A)
IC50 [2]: 78.2 nM
NRAS/KRAS (ratio of KD value for GDP-bound NRAS wild-type protein to KD value for KRAS) [3]: A (a compound having 10 or more and less than 20 is denoted as A)

CCO[C@@H]1C[C@H]2C(=O)NC3(CCC3)C(=O)N(C)[C@@H](C(CC)CC)C(=O)N(C)[C@H](C)CC(=O)N(C)[C@@H](CC3CC3)C(=O)N[C@@H]([C@@H](C)CC)C(=O)N(C)CC(=O)N(C)[C@H]3C/C=C\CCN(C3=O)[C@@H](Cc3ccc(F)cc3C)C(=O)N(C)CC(=O)N[C@@H](CCc3cc(F)c(C(F)(F)F)c(F)c3)C(=O)N2C1 [PP1520]
HRAS/KRAS (ratio of KD value for GDP-bound HRAS wild-type protein to KD value for KRAS) [1]: A (a compound having 10 or more and less than 20 is denoted as A)
IC50 [2]: 575 nM
NRAS/KRAS (ratio of KD value for GDP-bound NRAS wild-type protein to KD value for KRAS) [3]: A (a compound having 10 or more and less than 20 is denoted as A)

CCO[C@@H]1C[C@H]2C(=O)NC3(CCC3)C(=O)N(C)[C@@H](C(CC)CC)C(=O)N(C)[C@H](C)CC(=O)N(C)[C@@H](CC3CC3)C(=O)N[C@@H]([C@@H](C)CC)C(=O)N(C)CC(=O)N(C)[C@H]3C/C=C\CCN(C3=O)[C@@H](Cc3ccc(F)cc3)C(=O)N(C)CC(=O)N[C@@H](CCc3cc(F)c(C(F)(F)F)c(F)c3)C(=O)N2C1 [PP1521]
HRAS/KRAS (ratio of KD value for GDP-bound HRAS wild-type protein to KD value for KRAS) [1]: B (a compound having 3 or more and less than 10 is denoted as B)
IC50 [2]: 173 nM
NRAS/KRAS (ratio of KD value for GDP-bound NRAS wild-type protein to KD value for KRAS) [3]: A (a compound having 10 or more and less than 20 is denoted as A)

CCO[C@@H]1C[C@H]2C(=O)NC3(CCC3)C(=O)N(C)[C@@H](C(CC)CC)C(=O)N(C)[C@H](C)CC(=O)N(C)[C@@H](CC3CCCC3)C(=O)N[C@@H]([C@@H](C)CC)C(=O)N(C)CC(=O)N(C)[C@H]3C/C=C\CCN(C3=O)[C@@H](Cc3ccc(F)cc3C)C(=O)N(C)CC(=O)N[C@@H](CCc3cc(F)c(C(F)(F)F)c(F)c3)C(=O)N2C1 [PP1522]
HRAS/KRAS (ratio of KD value for GDP-bound HRAS wild-type protein to KD value for KRAS) [1]: A (a compound having 10 or more and less than 20 is denoted as A)
IC50 [2]: 567 nM
NRAS/KRAS (ratio of KD value for GDP-bound NRAS wild-type protein to KD value for KRAS) [3]: A (a compound having 10 or more and less than 20 is denoted as A)

CCO[C@@H]1C[C@H]2C(=O)NC3(CCC3)C(=O)N(C)[C@@H](C(CC)CC)C(=O)N(C)[C@H](C)CC(=O)N(C)[C@@H](CC(C)C)C(=O)N[C@@H]([C@@H](C)CC)C(=O)N(C)CC(=O)N(C)[C@H]3C/C=C\CCN(C3=O)[C@@H](Cc3ccc(F)cc3C)C(=O)N(C)CC(=O)N[C@@H](CCc3cc(F)c(C(F)(F)F)c(F)c3)C(=O)N2C1 [PP1524]
HRAS/KRAS (ratio of KD value for GDP-bound HRAS wild-type protein to KD value for KRAS) [1]: B (a compound having 3 or more and less than 10 is denoted as B)
IC50 [2]: 439 nM
NRAS/KRAS (ratio of KD value for GDP-bound NRAS wild-type protein to KD value for KRAS) [3]: B (a compound having 3 or more and less than 10 is denoted as B)

CCO[C@@H]1C[C@H]2C(=O)NC3(CCC3)C(=O)N(C)[C@@H](C(CC)CC)C(=O)N(C)[C@H](C)CC(=O)N(C)[C@@H](CC(C)C)C(=O)N[C@@H]([C@@H](C)CC)C(=O)N(C)CC(=O)N(C)[C@H]3C/C=C\CCN(C3=O)[C@@H](Cc3ccc(F)cc3)C(=O)N(C)CC(=O)N[C@@H](CCc3cc(F)c(C(F)(F)F)c(F)c3)C(=O)N2C1 [PP1525]
HRAS/KRAS (ratio of KD value for GDP-bound HRAS wild-type protein to KD value for KRAS) [1]: A (a compound having 10 or more and less than 20 is denoted as A)
IC50 [2]: 132 nM
NRAS/KRAS (ratio of KD value for GDP-bound NRAS wild-type protein to KD value for KRAS) [3]: A (a compound having 10 or more and less than 20 is denoted as A)

CCO[C@@H]1C[C@H]2C(=O)NC3(CCC3)C(=O)N(C)[C@@H](C(CC)CC)C(=O)N(C)[C@H](C(=O)N3CCOCC3)CC(=O)N(C)[C@@H](CC3CC3)C(=O)N[C@@H]([C@@H](C)CC)C(=O)N(C)CC(=O)N(C)[C@H]3C/C=C\CCN(C3=O)[C@@H](Cc3ccc(F)cc3C)C(=O)N(C)CC(=O)N[C@@H](CCc3cc(F)c(C(F)(F)F)c(F)c3)C(=O)N2C1 [PP1526]
HRAS/KRAS (ratio of KD value for GDP-bound HRAS wild-type protein to KD value for KRAS) [1]: A (a compound having 10 or more and less than 20 is denoted as A)
IC50 [2]: 118 nM
NRAS/KRAS (ratio of KD value for GDP-bound NRAS wild-type protein to KD value for KRAS) [3]: A (a compound having 10 or more and less than 20 is denoted as A)

CCO[C@@H]1C[C@H]2C(=O)NC3(CCC3)C(=O)N(C)[C@@H](C(CC)CC)C(=O)N(C)[C@H](C(=O)N3CCOCC3)CC(=O)N(C)[C@@H](CC3CC3)C(=O)N[C@@H]([C@@H](C)CC)C(=O)N(C)CC(=O)N(C)[C@H]3C/C=C\CCN(C3=O)[C@@H](Cc3ccc(F)cc3)C(=O)N(C)CC(=O)N[C@@H](CCc3cc(F)c(C(F)(F)F)c(F)c3)C(=O)N2C1 [PP1527]
HRAS/KRAS (ratio of KD value for GDP-bound HRAS wild-type protein to KD value for KRAS) [1]: A (a compound having 10 or more and less than 20 is denoted as A)
IC50 [2]: 143 nM
NRAS/KRAS (ratio of KD value for GDP-bound NRAS wild-type protein to KD value for KRAS) [3]: A (a compound having 10 or more and less than 20 is denoted as A)

CCO[C@@H]1C[C@H]2C(=O)NC3(CCC3)C(=O)N(C)[C@@H](C3CCCC3)C(=O)N(C)[C@H](C(=O)N(C)C)CC(=O)N(C)[C@@H](CC3CC3)C(=O)N[C@@H]([C@@H](C)CC)C(=O)N(C)CC(=O)N(C)[C@H]3C/C=C\CCN(C3=O)[C@@H](Cc3ccc(F)cc3C)C(=O)N(C)CC(=O)N[C@@H](CCc3cc(F)c(C(F)(F)F)c(F)c3)C(=O)N2C1 [PP1528]
HRAS/KRAS (ratio of KD value for GDP-bound HRAS wild-type protein to KD value for KRAS) [1]: B (a compound having 3 or more and less than 10 is denoted as B)
IC50 [2]: 45.6 nM
NRAS/KRAS (ratio of KD value for GDP-bound NRAS wild-type protein to KD value for KRAS) [3]: A (a compound having 10 or more and less than 20 is denoted as A)

CCO[C@@H]1C[C@H]2C(=O)NC3(CCC3)C(=O)N(C)[C@@H](C3CCCC3)C(=O)N(C)[C@H](C(=O)N(C)C)CC(=O)N(C)[C@@H](CC3CCCC3)C(=O)N[C@@H]([C@@H](C)CC)C(=O)N(C)CC(=O)N(C)[C@H]3C/C=C\CCN(C3=O)[C@@H](Cc3ccc(F)cc3C)C(=O)N(C)CC(=O)N[C@@H](CCc3cc(F)c(C(F)(F)F)c(F)c3)C(=O)N2C1 [PP1530]
HRAS/KRAS (ratio of KD value for GDP-bound HRAS wild-type protein to KD value for KRAS) [1]: B (a compound having 3 or more and less than 10 is denoted as B)
IC50 [2]: 17.2 nM
NRAS/KRAS (ratio of KD value for GDP-bound NRAS wild-type protein to KD value for KRAS) [3]: A (a compound having 10 or more and less than 20 is denoted as A)

CCO[C@@H]1C[C@H]2C(=O)NC3(CCC3)C(=O)N(C)[C@@H](C3CCCC3)C(=O)N(C)[C@H](C(=O)N(C)C)CC(=O)N(C)[C@@H](CC(C)C)C(=O)N[C@@H]([C@@H](C)CC)C(=O)N(C)CC(=O)N(C)[C@H]3C/C=C\CCN(C3=O)[C@@H](Cc3ccc(F)cc3C)C(=O)N(C)CC(=O)N[C@@H](CCc3cc(F)c(C(F)(F)F)c(F)c3)C(=O)N2C1 [PP1532]
HRAS/KRAS (ratio of KD value for GDP-bound HRAS wild-type protein to KD value for KRAS) [1]: B (a compound having 3 or more and less than 10 is denoted as B)
IC50 [2]: 13.4 nM
NRAS/KRAS (ratio of KD value for GDP-bound NRAS wild-type protein to KD value for KRAS) [3]: A (a compound having 10 or more and less than 20 is denoted as A)

CCCC[C@H]1C(=O)N[C@@H]([C@@H](C)CC)C(=O)N(C)CC(=O)N(C)[C@H]2C/C=C\CCN(C2=O)[C@@H](Cc2ccc(C(F)(F)F)cc2)C(=O)N(C)CC(=O)N[C@@H](CCc2cc(F)c(C(F)(F)F)c(F)c2)C(=O)N2C[C@H](OCC)C[C@H]2C(=O)NC2(CCC2)C(=O)N(C)[C@@H](C2CCCC2)C(=O)N(C)[C@H](C(=O)N(C)CC)CC(=O)N1C [PP1558]
HRAS/KRAS (ratio of KD value for GDP-bound HRAS wild-type protein to KD value for KRAS) [1]: B (a compound having 3 or more and less than 10 is denoted as B)
IC50 [2]: 3.4 nM
NRAS/KRAS (ratio of KD value for GDP-bound NRAS wild-type protein to KD value for KRAS) [3]: A (a compound having 10 or more and less than 20 is denoted as A)
